Measured values: US11071789B2, “Pharmaceutical prodrugs and methods of their preparation and use” (CEPHALON, INC., priority 2016, dated 2021)
Where two headings read alike, the source gives them in different places.

How the values were obtained:
[1] = Dox-Hyd-C18 nanoparticles: plasma, liver and lung levels in female SCID mice; type: in vivo; conditions: about 1.8 mg-eq/kg IV
[2] = Dox-Hyd-C12 nanoparticles: plasma, liver and lung levels in female SCID mice; conditions: Dox-Hyd-C12 nanoparticle study, about 2.2 mg-eq/kg IV
[3] = SCID, mouse, in vivo, iv
[4] = female, SCID, mouse, in vivo, iv

Row | SMILES | doxorubicin from hydrolysis of prodrug in tissue [1] | time nanoparticles circulate in plasma [1] | doxorubicin from hydrolysis of prodrug in tissue [2] | tmax [3] | AUC0-t [4] | AUC0-∞ [4] | tmax [4]
1 | CCCCCCCCCCCCCCCCCC(=O)NN=C(CO)[C@]1(O)Cc2c(O)c3c(c(O)c2[C@@H](O[C@H]2C[C@H](N)[C@H](O)[C@H](C)O2)C1)C(=O)c1c(OC)cccc1C3=O [Dox-Hyd-C18] | detected in liver and lung tissue | up to 24 hours | detected in liver and lung tissue |  |  |  | 
2 | Cn1c(CCCC(=O)O)nc2cc(N(CCCl)CCCl)ccc21 [Bendamustine, bendamustine] |  |  |  | 4.98 min | 566 ng·h/mL | 589 ng·h/mL | 0083 h
